# Results taken from patent US12435083B2, “Cyclopropyl-(hetero)aryl-substituted ethylsulphonyl-pyridine derivatives” (BOEHRINGER INGELHEIM VETMEDICA GMBH, priority 2021, dated 2025).
# Where two headings read alike, the source gives them in different places.
# Experiments:
# [1] = system: adult Ctenocephalides felis fleas; experiment: Contact activity against adult Ctenocephalides felis (treated surface, motility by machine vision, 24 h); settings: read-out: EC80 (% motility reduction, adult C. felis, contact)
# Excerpt: Example 7: Screening Method to Test Contact Activity of Compounds of Formula (I) Against Adult Ctenocephalides felis
# Plutella xylostella = experiment: Insecticidal test on Plutella xylostella (Chinese cabbage seedling dip); settings: 144 h, read-out: activity level (corrected mortality rate), Plutella xylostella
# Method: Example 12: Insecticidal Test on Plutella xylostella
# (§1) The compounds of formula (I) of the present invention or salts thereof were separately dispersed in water and diluted to 500 ppm. Ten adults of Plutella xylostella were released onto Chinese cabbage seedlings and allowed to lay eggs thereon. 2 days after the release of the adults, the seedling was dipped in the dispersion for about 30 seconds. After air dried, the seedling was kept in a room at 25° C. 6 days after the dip treatment, the numbers of the dead and alive insects were counted. The corrected mortality rate was calculated according to the following formula and the insecticidal activity was evaluated according to the following criteria. Corrected mortality rate (%)=100×(Survival rate in an untreated plot−Survival rate in a treated plot)/Survival rate in an untreated plot • A: the corrected mortality rate is 100% • B: the corrected mortality rate is 90 to 99% • C: the corrected mortality rate is 80 to 89% • D: the corrected mortality rate is 50 to 79%
# Aedes aegypti L1 larvae = experiment: Activity against larvae of Aedes aegypti (L1 larvae, 384-well, image-based mortality); settings: 48 h at 27° C., 384-well, read-out: EC50 (percentage of mortality, A. aegypti L1 larvae)
# Method: Example 3: Screening Method to Test Activity of Compounds of Formula (I) Against Larvae of Aedes aegypti
# Eight A. aegypti L1 larvae in a total volume of 64 μL water were added to 384-well microplates containing compounds formulated in 100% DMSO. The plates were incubated for 48 h at 27° C. Individual well images were acquired and analyzed using a pipeline to quantitatively assess the amount of larvae biomass accumulating at the bottom of the well. The efficacy of a compound at a given dose is expressed as “percentage of mortality” and determined by comparison to average biomass descriptors of positive and negative control wells containing 1.0 μM Fipronil or DMSO only, respectively. Dose response assay were conducted to determine an EC50 value.
# Myzus persicae = experiment: Insecticidal test on Myzus persicae (foliar application on potted Chinese cabbage); settings: 144 h, 500 ppm, foliar application, 6 days after application, read-out: control efficacy level (control rate), Myzus persicae
# Excerpt: Example 14: Insecticidal Test on Myzus persicae
# The compounds of formula (I) of the present invention or salts thereof were separately dispersed in water and diluted to 500 ppm. Chinese cabbage plants were planted in plastic pots (diameter: 8 cm, height: 8 cm). Aphids (Myzus persicae) were propagated on the plants and then the number of surviving aphids was counted. The dispersion was applied to the foliage of the potted plants. After the plants were air dried, these were kept in a greenhouse. 6 days after the application, the number of the alive insects was counted on the plants. The control rate was calculated according to the following formula and the control efficacy was evaluated according to the following criteria. Control rate (%)=100−{(T×Ca)/(Ta×C)}×100 • Ta: the number of alive insects before the foliar application in a treated plot • T: the number of alive insects after the foliar application in a treated plot • Ca: the number of alive insects before the foliar application in an untreated plot • C: the number of alive insects after the foliar application in an untreated plot • A: the control rate is 100% • B: the control rate is 90 to 99% • C: the control rate is 80 to 89% • D: the control rate is 50 to 79%
# [2] = system: Laodelphax striatellus 3rd-instar nymphs; experiment: Insecticidal test on Laodelphax striatellus (rice seedling dip); settings: 192 h, read-out: activity level (corrected mortality rate), Laodelphax striatellus
# Method: Example 13: Insecticidal Test on Laodelphax striatellus
# as §1, with “Rice plant seedlings” for “Ten adults of Plutella xylostella”, “were” for “were released onto Chinese cabbage seedlings and allowed to lay eggs thereon. 2 days after the release of the adults, the seedling was”, “seedlings were put into a separate glass test tube and inoculated with ten 3rd-instar nymphs of Laodelphax striatellus and then the glass test tube” for “seedling”, “8” for “6”, “inoculation,” for “dip treatment,”
# [3] = system: adult Rhipicephalus sanguineus ticks; experiment: Contact activity against adult Rhipicephalus sanguineus (coated vial, mortality at 48 h); settings: Rhipicephalus sanguineus
# Method: Example 5: Screening Method to Test Contact Activity of Compounds of Formula (I) Against Adult Rhipicephalus sanguineus
# Compounds of formula (I) formulated in 100% DMSO were diluted in a solution containing acetone and Triton X-100 (0.02%). The resulting formulation was used to coat the inner walls of glass scintillation vials and the filter paper covering the cap of the vial. Once dried, ten adult R. sanguineus ticks were added to the vials. The vials were incubated at 24° C., 95% relative humidity, and 12 hours of light/12 hours of dark until evaluation. Ticks were visually evaluated for mortality at 48 hours post-treatment. Compound efficacy at a given dose is expressed as percentage mortality. A dose response series was implemented to determine EC50 values.
# (§2) The four structurally closest prior art compounds (A), (B), (C) and (D) specifically excluded from the scope of formula (I) were characterized vis-a-vis selected compounds of formula (I) with regard to their potency in in vitro screening assays against fleas (Ctenocehalides felis) and ticks (Rhipicephalus sanguineus).
# (§3) However, as explained above, spectrum of action against this range of species (i.e. fleas and ticks) is a desirable property of ectoparasiticides for veterinary use. In the following table 1 comparative experimental data of the in vitro assays are shown regarding flea membrane feeding (ingestion, blood feeding) activity against Ctenocephalides felis and contact activity against Rhipicephalus sanguineus.
# [4] = system: adult Ctenocephalides felis fleas; experiment: Ingestion activity (flea membrane feeding, blood feeding) against adult Ctenocephalides felis; settings: Ctenocephalides felis
# Excerpt: Example 6: Screening Method to Test Ingestion Activity of Compounds of Formula (I) Against Adult Ctenocephalides felis
# as §2
# It is important to note that compounds that show better activity versus ticks are more desirable in the animal health field, as ticks are more difficult to control than fleas. Noteworthy, in particular with regard to fleas the illustrated comparative data are based on a flea membrane feeding (ingestion, blood feeding) assay. Data from this assay are more relevant for compounds intended to be delivered systemically to an animal via oral or injectable routes. Membrane feeding assays differ to primary screening laboratory contact assays in that the latter only measure the effect of the direct contact of selected compounds on the parasite, such as the flea or the tick. The information derived from laboratory contact assays is strictly limited to the ability of the compound to be absorbed through the parasite surface and to reach its molecular target, and no information can be gleaned from these contact assays as to whether the compound would also be active when presented orally to the ectoparasite itself in a blood meal, such as with the membrane feeding assay, and certainly not when administered orally to an animal host (e.g. “in vivo”) with subsequent exposure to the ectoparasite.
# as §3
# [5] = 500 ppm, seedling dip, 6 days after dip treatment
# [6] = 500 ppm, seedling dip, 8 days after inoculation
# [7] = 48 hours post-treatment, coated vial, read-out: EC50 (percentage mortality, adult R. sanguineus, contact)
# [8] = bovine blood, 24h post treatment, read-out: EC80 (% motility reduction, adult C. felis, ingestion via membrane feeding)
SMILES,"EC80 ([1]; treated surface, 24h) [µM]",mortality at 500 ppm (Plutella xylostella; [5]) [%],pest or weed control at 500 ppm (Myzus persicae) [%],"mortality at 500 ppm [2, 6] [%]",other results
"CCn1cc(C(F)(F)F)cc2nc(-c3ncc(-c4ccc(C5CC5)cc4)cc3S(=O)(=O)CC)cc1-2 [Compound 6, 5-(4-cyclopropylphenyl)-3-(ethanesulfonyl)-2-[4-ethyl-6-(trifluoromethyl)pyrrolo[3,2-b]pyridine-2-yl]pyridine]",1 to 10,100,–,–,–
"CCS(=O)(=O)c1cc(-c2ccc(C3CC3)cc2)cnc1-n1cc2cnc([S+]([O-])C(F)(F)F)cc2n1 (centres unmarked) [Compound 29, 5-(4-cyclopropylphenyl)-3-(ethanesulfonyl)-2-[6-trifluoromethanesulfinylpyrazolo[4,3-c]pyridin-2-yl]pyridine]",1 to 10,–,–,–,EC50 (Aedes aegypti L1 larvae): < 0.04 µM
"CCS(=O)(=O)c1cc(-c2ccc(C3CC3)cc2)cnc1-c1nc2cc(C(F)(F)F)cnc2o1 [Compound 40, 5-(4-cyclopropylphenyl)-3-(ethanesulfonyl)-2-[6-(trifluoromethyl)-[1,3]oxazolo[5,4-b]pyridin-2-yl]pyridine]",1 to 10,100,–,–,–
"CCS(=O)(=O)c1cc(-c2ccc(C3CC3)cc2)cnc1-c1nc(-c2cc(C(F)(F)F)ccn2)cn1C [Compound 55, 5-(4-cyclopropylphenyl)-3-(ethanesulfonyl)-2-[1-methyl-4-[4-(trifluoromethyl)pyridin-2-yl]imidazol-2-yl]pyridine]",–,100,100,100,–
"CCS(=O)(=O)c1cc(-c2cncc(C3CC3)c2)cnc1-c1nc2cc(C(F)(F)C(F)(F)F)nnc2n1C [Compound 61, 5′-cyclopropyl-5-(ethanesulfonyl)-6-[7-methyl-3-(1,1,2,2,2-pentafluoroethyl)imidazo[4,5-c]pyridazin-6-yl]-3,3′-bipyridine]",–,–,–,–,"EC50 [3, 7]: 10 to 100 µM; EC50 (Aedes aegypti L1 larvae): 0.04 to 0.05 µM"
"CCn1cc(C(F)(F)F)cc2nc(-c3ncc(-c4ncc(C5CC5)cn4)cc3S(=O)(=O)CC)cc1-2 [Compound 92, 5-cyclopropyl-2-[5-(ethanesulfonyl)-6-[4-ethyl-6-(trifluoromethyl)pyrrolo[3,2-b]pyridin-2-yl]pyridin-3-yl]pyrimidine]",1 to 10,100,100,–,–
"CCS(=O)(=O)c1cc(-c2cnc(C3CC3)nc2)cnc1-c1nc2cc(C(F)(F)C(F)(F)F)nnc2n1C [Compound 93, 2-cyclopropyl-5-[5-(ethanesulfonyl)-6-[7-methyl-3-(1,1,2,2,2-pentafluoroethyl)imidazo[4,5-c]pyridazin-6-yl]pyridin-3-yl]pyrimidine]",< 1,–,–,–,"EC80 [4, 8]: 1 to 10 µM"
"CCS(=O)(=O)c1cc(-c2ccc(C3CC3)cc2)cnc1-c1cc2n(C(C)C)cc(C(F)(F)F)cc-2n1 [Compound 100, 5-(4-cyclopropylphenyl)-3-(ethanesulfonyl)-2-[4-isopropyl-6-(trifluoromethyl)pyrrolo[3,2-b]pyridin-2yl]pyridine]",–,–,–,–,"EC50 ([3]; 48 h, read-out: EC50 (percentage mortality, adult R. sanguineus, contact)): < 10 µM; EC80 ([1]; 24 h): 1 to 10 µM; mortality at 500 ppm [2]: 100%; mortality at 500 ppm (Plutella xylostella): 100%"
"CCS(=O)(=O)c1cc(-c2ccc(C3CC3)cc2)cnc1-c1ccc(OCC(F)(F)C(F)(F)F)nn1 [Compound 126, 3-[5-(4-cyclopropylphenyl)-3-(ethanesulfonyl)pyridin-2-yl]-6-(2,2,3,3,3-pentafluoropropoxy)pyridazine]",–,100,100,100,"EC50 [3, 7]: < 10 µM"
"CCS(=O)(=O)c1cc(-c2cnnc(C3CC3)c2)cnc1-c1nc2cc(C(F)(F)C(F)(F)F)cnc2n1C [Compound 195, 3-cyclopropyl-5-[5-(ethanesulfonyl)-6-[3-methyl-6-(1,1,2,2,2-pentafluoroethyl)imidazo[4,5-b]pyridin-2-yl]pyridin-3-yl]pyridazine]",–,100,–,100,"EC80 [4, 8]: < 1 µM"
CCS(=O)(=O)c1cc(-c2ccc(C3(C(F)(F)F)CC3)cc2)cnc1-c1nc2cc(C(F)(F)C(F)(F)F)ncc2n1C [compound 116],–,–,–,–,EC50 (Aedes aegypti L1 larvae): < 0.04 µM
CCn1c(=O)c(C(F)(F)F)cc2nc(-c3ncc(-c4ccc(C5CC5)cc4)cc3S(=O)(=O)CC)n(C)c21 [compound 125],1 to 10,–,100,–,–
CCS(=O)(=O)c1cc(-c2ccc(C3CC3(F)F)cc2)cnc1-c1nc2cc(C(F)(F)C(F)(F)F)cnc2n1C (centres unmarked) [compound 134],1 to 10,100,100,100,"EC50 [3, 7]: 10 to 100 µM; EC50 ([3]; contact assay, >100 μM = not active at the top concentration, read-out: R. sanguineus contact activity EC50): 10 to 100 µM; EC80 ([4]; 24 h, flea membrane feeding (ingestion, blood feeding) assay, EC80, read-out: C. felis membrane feeding (ingestion/blood feeding) activity EC80): 1 to 10 µM; EC80 [4, 8]: 1 to 10 µM"
CCS(=O)(=O)c1cc(-c2cccnc2C2CC2)cnc1-c1nc2cc(C(F)(F)C(F)(F)F)nnc2n1C [compound 138],< 1,100,100,100,"EC80 [4, 8]: < 1 µM"
CCS(=O)(=O)c1cc(-c2ccc(C3(C)CC3)cc2)cnc1-c1nc2cc(C(F)(F)C(F)(F)F)nnc2n1C [compound 154],1 to 10,100,100,–,"EC50 [3, 7]: 10 to 100 µM"
